In the supplement of paper PMC8671470:

How the values were obtained:
Details in all cases: 72 h
[1] = tested on: HL-60
How it was run: (§1)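 For the IC50, dose–response curves were fitted with a log-logistic model. The data came from fifteen myeloid leukaemia cell lines grown in RPMI 1640 at densities in the linear growth range and incubated in 384-well plates for 72 h at 37 °C under 5% CO2. Doses were five tenfold steps from 1 to 10,000 nM in duplicate, and luminescent ATP viability was normalised to vehicle and to a positive control at 10 µM before four-parameter fitting.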

[2] = tested on: NOMO-1
How it was run: as §1

[3] = tested on: KU-812
How it was run: as §1

[4] = tested on: MOLM-13
How it was run: as §1

[5] = tested on: ML-2
How it was run: as §1

[6] = tested on: K-562
How it was run: as §1

[7] = tested on: SHI-1
How it was run: as §1

[8] = tested on: BV-173
How it was run: as §1

[9] = tested on: LAMA-84
How it was run: as §1

[10] = tested on: MV4-11
How it was run: as §1

[11] = tested on: HEL
How it was run: as §1

[12] = tested on: THP-1
How it was run: as §1

[13] = tested on: KCL-22
How it was run: as §1

[14] = tested on: Mono-Mac-6
How it was run: as §1

[15] = tested on: KG-1
How it was run: as §1

[16] = tested on: HL-60; assay: cell viability (% survival relative to DMSO control, bortezomib = 0%); higher = less cytotoxic
How it was run: (§2)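 Seeding density for each of the 10 AML and 5 CML cell lines was titrated to the linear growth range. Cells went into 384-well plates pre-printed in duplicate with compounds at 1, 10, 100, 1000 or 10000 nM and were held for 72 h at 37 °C with 5% CO2. CellTiter-Glo luminescence then provided the readout. Percent survival is expressed relative to vehicle at 100% and a 10 µM positive control at 0%, averaged over duplicates.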

[17] = tested on: NOMO-1; assay: as above
How it was run: as §2

[18] = tested on: KU-812; assay: as above
How it was run: as §2

[19] = tested on: MOLM-13; assay: as above
How it was run: as §2

[20] = tested on: ML-2; assay: as above
How it was run: as §2

[21] = tested on: K-562; assay: as above
How it was run: as §2

[22] = tested on: SHI-1; assay: as above
How it was run: as §2

[23] = tested on: BV-173; assay: as above
How it was run: as §2

[24] = tested on: LAMA-84; assay: as above
How it was run: as §2

[25] = tested on: MV4-11; assay: as above
How it was run: as §2

[26] = tested on: HEL; assay: as above
How it was run: as §2

[27] = tested on: THP-1; assay: as above
How it was run: as §2

[28] = tested on: KCL-22; assay: as above
How it was run: as §2

[29] = tested on: Mono-Mac-6; assay: as above
How it was run: as §2

[30] = tested on: KG-1; assay: as above
How it was run: as §2

NS(=O)(=O)c1ccc(NC(=O)Cc2ccccc2)cc1 [4-(2-Phenylacetamido)Benzenesulfonamide]
Details | IC50 (cell viability) [µM]
[1] | > 10
[2] | > 10
[3] | > 10
[4] | > 10
[5] | > 10
[6] | > 10
[7] | > 10
[8] | > 10
[9] | > 10
[10] | > 10
[11] | > 10
[12] | > 10
[13] | > 10
[14] | > 10
[15] | > 10

cell viability [%]
Details | 1 nM | 10 nM | 100 nM | 1000 nM | 10000 nM
[16] | 162 | 97.6 | 115 | 106 | 89.7
[17] | 97.5 | 102 | 108 | 109 | 107
[18] | 92.1 | 99.1 | 105 | 105 | 107
[19] | 95.7 | 99.9 | 81 | 84.6 | 81.3
[20] | 98.7 | 102 | 95.6 | 108 | 102
[21] | 100 | 99.4 | 103 | 112 | 97.2
[22] | 106 | 105 | 91.2 | 102 | 102
[23] | 118 | 94.8 | 105 | 114 | 92.9
[24] | 97.4 | 104 | 110 | 97.4 | 102
[25] | 108 | 109 | 95.7 | 91.3 | 86.6
[26] | 106 | 108 | 78.6 | 99 | 106
[27] | 89.8 | 105 | 109 | 99 | 87.8
[28] | 99.8 | 102 | 83.9 | 108 | 93.9
[29] | 87.8 | 108 | 95.9 | 102 | 96.9
[30] | 99 | 106 | 85.8 | 90 | 103

OC[C@H]1N[C@@H](c2c[nH]c3c(O)ncnc23)[C@H](O)[C@@H]1O [Forodesine]
Details | IC50 (cell viability) [µM]
[1] | > 10
[2] | > 10
[3] | > 10
[4] | > 10
[5] | > 10
[6] | > 10
[7] | > 10
[8] | > 10
[9] | > 10
[10] | > 10
[11] | > 10
[12] | > 10
[13] | > 10
[14] | > 10
[15] | > 10

cell viability [%]
Details | 1 nM | 10 nM | 100 nM | 1000 nM | 10000 nM
[16] | 92.1 | 98 | 95.8 | 102 | 90.2
[17] | 97.9 | 92.3 | 97.3 | 96.9 | 87.4
[18] | 89.9 | 96 | 96.8 | 96.4 | 75.4
[19] | 81.3 | 89.2 | 93.1 | 103 | 84.1
[20] | 92.7 | 85 | 95.3 | 92.9 | 85.7
[21] | 94.9 | 94.4 | 88.3 | 97.5 | 99.3
[22] | 101 | 95.5 | 94.3 | 108 | 98.9
[23] | 95.1 | 83.9 | 103 | 91.1 | 89.1
[24] | 96.4 | 90.1 | 94.7 | 93 | 88.7
[25] | 97.1 | 94.5 | 91.7 | 92.3 | 90.3
[26] | 103 | 95.9 | 102 | 92.6 | 88.6
[27] | 100 | 93.9 | 90.7 | 83.1 | 74.3
[28] | 102 | 91.8 | 100 | 99.2 | 91.3
[29] | 109 | 87.5 | 107 | 108 | 88.5
[30] | 107 | 94.2 | 95.4 | 85.1 | 82.8

CCCC(CCC)C(=O)O [Valproic acid]
Details | IC50 (cell viability) [µM]
[1] | > 10
[2] | > 10
[3] | > 10
[4] | > 10
[5] | > 10
[6] | > 10
[7] | > 10
[8] | > 10
[9] | > 10
[10] | > 10
[11] | > 10
[12] | > 10
[13] | > 10
[14] | > 10
[15] | > 10

cell viability [%]
Details | 1 nM | 10 nM | 100 nM | 1000 nM | 10000 nM
[16] | 87.3 | 96.2 | 99.2 | 87.9 | 103
[17] | 93.8 | 93.6 | 94.6 | 98.5 | 104
[18] | 95.6 | 86.5 | 92.6 | 99.5 | 97.2
[19] | 105 | 100 | 100 | 76 | 105
[20] | 106 | 95.6 | 93 | 99.3 | 91.5
[21] | 107 | 95.7 | 98.6 | 109 | 112
[22] | 106 | 94.8 | 95.9 | 92.5 | 101
[23] | 88.5 | 93.5 | 87.8 | 104 | 90.6
[24] | 106 | 91.7 | 96.2 | 102 | 106
[25] | 111 | 86.6 | 102 | 96.6 | 97.5
[26] | 119 | 103 | 94.5 | 108 | 106
[27] | 104 | 93.2 | 93.7 | 102 | 91.2
[28] | 108 | 94.1 | 96.2 | 127 | 95.5
[29] | 96.3 | 98.2 | 98.3 | 105 | 99.1
[30] | 90.2 | 98.7 | 93 | 90.4 | 108

NC(CCC(=O)NC(CSCc1ccc(Br)cc1)C(=O)NCC(=O)OC1CCCC1)C(=O)OC1CCCC1 (stereo not given) [S-para-Bromobenzylglutathione cyclopentyl diester]
Details | IC50 (cell viability) [µM]
[1] | > 10
[2] | > 10
[3] | > 10
[4] | > 10
[5] | 3.95
[6] | > 10
[7] | > 10
[8] | 2.32
[9] | > 10
[10] | > 10
[11] | > 10
[12] | > 10
[13] | > 10
[14] | > 10
[15] | > 10

cell viability [%]
Details | 1 nM | 10 nM | 100 nM | 1000 nM | 10000 nM
[16] | 97.3 | 92.7 | 105 | 90 | 100
[17] | 98 | 98.1 | 97.4 | 97.8 | 95.8
[18] | 90.1 | 97.2 | 95.9 | 101 | 93.9
[19] | 113 | 111 | 92.6 | 90 | 89.2
[20] | 102 | 87.1 | 105 | 105 | 8.21
[21] | 105 | 106 | 104 | 112 | 93.2
[22] | 98.2 | 109 | 98.5 | 91.3 | 99.9
[23] | 96.5 | 88.3 | 97 | 77.1 | 28
[24] | 101 | 110 | 93.3 | 98.2 | 98.9
[25] | 109 | 89.3 | 106 | 98.7 | 93.4
[26] | 114 | 88.2 | 113 | 102 | 77
[27] | 103 | 97.5 | 96.8 | 101 | 92
[28] | 103 | 97.9 | 104 | 111 | 98.3
[29] | 108 | 96.5 | 88.8 | 90.6 | 63.3
[30] | 145 | 102 | 49.9 | 43.4 | 105

CC(C)(CS(=O)(=O)[O-])NC(=O)CC[N+](C)(C)CCO
Details | IC50 (cell viability) [µM]
[1] | > 10
[2] | > 10
[3] | > 10
[4] | > 10
[5] | > 10
[6] | > 10
[7] | > 10
[8] | > 10
[9] | > 10
[10] | > 10
[11] | > 10
[12] | > 10
[13] | > 10
[14] | > 10
[15] | > 10

cell viability [%]
Details | 1 nM | 10 nM | 100 nM | 1000 nM | 10000 nM
[16] | 116 | 118 | 97.8 | 78.4 | 97.8
[17] | 94.8 | 102 | 96 | 94.3 | 101
[18] | 99.7 | 98.6 | 99.3 | 89.4 | 107
[19] | 121 | 112 | 97.2 | 82.3 | 117
[20] | 95.4 | 109 | 89.4 | 88.9 | 115
[21] | 108 | 88.5 | 105 | 97.8 | 105
[22] | 107 | 115 | 96.8 | 91.8 | 126
[23] | 88.4 | 97.7 | 91.6 | 91.3 | 113
[24] | 88.8 | 96.6 | 100 | 91.3 | 106
[25] | 104 | 101 | 99.8 | 95.6 | 114
[26] | 101 | 106 | 93.8 | 98.8 | 104
[27] | 101 | 102 | 99.5 | 93.2 | 120
[28] | 107 | 103 | 94.1 | 88.8 | 117
[29] | 86.8 | 105 | 90.1 | 91.6 | 105
[30] | 97.4 | 114 | 93.6 | 94.4 | 118
